The target in assay [1] is Cyclin-dependent kinase 2 (Homo sapiens, UniProt P24941). The assay can be described thus: In vitro inhibition of Cyclin-dependent kinase 2.
In the next assay the test system is MDA-MB-435. The assay can be described thus: Inhibitory concentration against human breast carcinoma cell line proliferation. Type of assay: functional, cell-based.
Another assay has as its system RKO. In words: Inhibitory concentration against human colon cancer (RKO) cell line proliferation. Type of assay: functional, cell-based.
Assay [2] can be described thus: Inhibition of blocked progression of G0 synchronized cell into S phase using G1-S cell cycle progression assay. It is filed as functional.

The term IC50 denotes the concentration that inhibits the measured activity by half. Take `NCCS(=O)(=O)c1cc(-c2ccc[nH]2)c2c3c(ccc(F)c13)NC2=O`: the IC50 in assay [1] was determined as 23 nM; in the assay with MDA-MB-435 it was 1080 nM; with RKO it was 430 nM.

In the case of `O=C1Nc2ccc(F)c3c(S(=O)(=O)CCO)cc(-c4ccc[nH]4)c1c23`, the IC50 in assay [1] was 15 nM; with MDA-MB-435 it was 3200 nM; in the assay on RKO, 1200 nM.

As for `CCOc1cc(-c2ccc[nH]2)c2c3c(ccc(F)c13)NC2=O`, the midpoint of inhibition in assay [1], the IC50, lay at 77 nM.

For `NCCSc1cc(-c2ccc[nH]2)c2c3c(ccc(F)c13)NC2=O`, the IC50 in assay [1] was determined as 3 nM; with MDA-MB-435 it was 310 nM; with RKO it was 100 nM; in assay [2], 810 nM.

On to `NCCOc1cc(-c2ccc[nH]2)c2c3c(ccc(F)c13)NC2=O`, for which the IC50 in assay [1] is 12 nM; with MDA-MB-435, 380 nM; with RKO, 110 nM; in assay [2], 910 nM.

On to `O=C1Nc2ccc(F)c3ccc(-c4ccc[nH]4)c1c23`, for which the IC50 in assay [1] is 204 nM; with MDA-MB-435 it was 2280 nM; with RKO, 5950 nM; in assay [2], over 30000 nM.

In assay [1], `CC(=O)NCCNc1cc(-c2ccc[nH]2)c2c3c(ccc(F)c13)NC2=O` came in with an IC50 of 127 nM.

With `NCCCc1cc(-c2ccc[nH]2)c2c3c(ccc(F)c13)NC2=O`, 7 nM corresponded to half-maximal inhibition in assay [1] (IC50).

On to `N#CCCc1cc(-c2ccc[nH]2)c2c3c(ccc(F)c13)NC2=O`, for which the midpoint of inhibition in assay [1], the IC50, lay at 5 nM.

In the case of `O=C1Nc2ccc(F)c3c(SC[C@@H]4CCCN4)cc(-c4ccc[nH]4)c1c23`, the IC50 came to 18 nM in assay [1], 210 nM in the assay on MDA-MB-435 and 60 nM in the assay with RKO.

Turning to `NCC[S+]([O-])c1cc(-c2ccc[nH]2)c2c3c(ccc(F)c13)NC2=O` (centres undefined), the IC50 in assay [1] stood at 28 nM; with MDA-MB-435, 1210 nM; with RKO, 420 nM; in assay [2] it was 1870 nM.

In the case of `O=C1Nc2ccc(F)c3c(OCCCO)cc(-c4ccc[nH]4)c1c23`, the midpoint of inhibition in assay [1], the IC50, lay at 18 nM.

Take `O=C1Nc2ccc(F)c3c(S[C@H]4CCNC4)cc(-c4ccc[nH]4)c1c23`: the 50% inhibitory concentration (IC50) in assay [1] was 5 nM; in the assay with MDA-MB-435, 120 nM; with RKO, 70 nM.

As to `O=C1Nc2ccc(F)c3c(OCCO)cc(-c4ccc[nH]4)c1c23`, the IC50 in assay [1] is 62 nM; in the assay on MDA-MB-435 it was 580 nM; in the assay with RKO, 500 nM; in assay [2], 10900 nM.

Consider `NCCCNc1cc(-c2ccc[nH]2)c2c3c(ccc(F)c13)NC2=O`, for which the IC50 in assay [1] was determined as 48 nM; in the assay on MDA-MB-435 it was 70 nM; in the assay with RKO, 120 nM; in assay [2] it was 2040 nM.

`CC(=O)OCCCOc1cc(-c2ccc[nH]2)c2c3c(ccc(F)c13)NC2=O` had an IC50 in assay [1] of over 1000 nM.

Compound `CCc1cc(-c2ccc[nH]2)c2c3c(ccc(F)c13)NC2=O` showed an IC50 in assay [1] of 72 nM.

With `Cc1cc(-c2ccc[nH]2)c2c3c(ccc(F)c13)NC2=O`, half-maximal inhibition in assay [1] (IC50) was put at 376 nM.

The compound `NCCNc1cc(-c2ccc[nH]2)c2c3c(ccc(F)c13)NC2=O` came in with an IC50 in assay [2] of 1490 nM.

Take `CC(C)(N)CNc1cc(-c2ccc[nH]2)c2c3c(ccc(F)c13)NC2=O`: the IC50 in assay [1] was 65 nM; in the assay with MDA-MB-435 it was 160 nM; with RKO, 110 nM; in assay [2], 1670 nM.

Turning to `O=C1Nc2ccc(F)c3c(SCCO)cc(-c4ccc[nH]4)c1c23`, the IC50 turned out to be 14 nM in assay [1], 1730 nM in the assay on MDA-MB-435, 1480 nM in the assay on RKO and 2740 nM in assay [2].

In assay [1], `CC(C)Cc1cc(-c2ccc[nH]2)c2c3c(ccc(F)c13)NC2=O` had an IC50 of 124 nM.

For `O=C1Nc2ccc(F)c3c(NCCO)cc(-c4ccc[nH]4)c1c23`, the IC50 in assay [1] was 54 nM; in the assay with MDA-MB-435, 620 nM; in the assay on RKO, 740 nM; in assay [2], 2390 nM.

As to `COc1cc(-c2ccc[nH]2)c2c3c(ccc(F)c13)NC2=O`, the IC50 in assay [1] worked out at 18 nM; in the assay on MDA-MB-435 it was 890 nM; with RKO it was 750 nM; in assay [2] it was 7100 nM.

As for `CC(C)(C)OC(=O)NCCNc1cc(-c2ccc[nH]2)c2c3c(ccc(F)c13)NC2=O`, the IC50 in assay [1] was 5500 nM.

With `CCN(CC)CCNc1cc(-c2ccc[nH]2)c2c3c(ccc(F)c13)NC2=O`, the concentration for half-maximal inhibition (IC50) in assay [1] stood at 294 nM.

The values above are taken from ChEMBL document CHEMBL1136123, “3,5,6-Trisubstituted naphthostyrils as CDK2 inhibitors” (Bioorg Med Chem Lett, 2003).
